# Results as given in patent US20230265151A1, “GIP/GLP1 CO-AGONIST COMPOUNDS” (priority 2020, published 2023).
# Read-outs that look alike come from different tables or passages of the source.
# Tests used:
# hGIPR = target: T1, hGIPR (Homo sapiens, UniProt P48546); experiment: Functional cAMP formation (HTRF) in HEK-293 clonal cells expressing hGIPR, 0.1% bovine casein, without or with 1.0% human serum albumin; assay type: cell-based; details: for EC50: geometric mean
# T1 construct: expressed in transfected cells
# T1 sequence (P48546 22-466): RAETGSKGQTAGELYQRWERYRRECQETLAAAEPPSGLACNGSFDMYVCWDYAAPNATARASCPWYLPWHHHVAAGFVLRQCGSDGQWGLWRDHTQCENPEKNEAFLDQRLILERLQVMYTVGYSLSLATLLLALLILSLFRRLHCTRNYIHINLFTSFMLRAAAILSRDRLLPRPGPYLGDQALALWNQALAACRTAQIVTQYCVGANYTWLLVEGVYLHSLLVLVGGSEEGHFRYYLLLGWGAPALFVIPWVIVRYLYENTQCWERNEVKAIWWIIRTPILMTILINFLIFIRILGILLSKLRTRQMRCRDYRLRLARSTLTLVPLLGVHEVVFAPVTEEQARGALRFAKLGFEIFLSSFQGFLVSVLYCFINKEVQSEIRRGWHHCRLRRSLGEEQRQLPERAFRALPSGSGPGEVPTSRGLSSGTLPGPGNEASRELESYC
# Outline: (§1)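 Cells were stimulated with peptide for 30 min at 37° C, then lysed in buffer carrying cAMP-d2 and anti-cAMP Eu3+-cryptate for a competitive HTRF read after at least 60 min at room temperature. The 665/620 nm ratio was converted to nM cAMP against a standard curve.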
# hGCGR = target: T2, hGCGR (Homo sapiens, UniProt P47871); experiment: Functional cAMP formation (HTRF) in HEK-293 clonal cells expressing hGCGR, 0.1% bovine casein, without or with 1.0% human serum albumin; assay type: cell-based
# T2 construct: expressed in transfected cells
# T2 sequence (P47871 26-477): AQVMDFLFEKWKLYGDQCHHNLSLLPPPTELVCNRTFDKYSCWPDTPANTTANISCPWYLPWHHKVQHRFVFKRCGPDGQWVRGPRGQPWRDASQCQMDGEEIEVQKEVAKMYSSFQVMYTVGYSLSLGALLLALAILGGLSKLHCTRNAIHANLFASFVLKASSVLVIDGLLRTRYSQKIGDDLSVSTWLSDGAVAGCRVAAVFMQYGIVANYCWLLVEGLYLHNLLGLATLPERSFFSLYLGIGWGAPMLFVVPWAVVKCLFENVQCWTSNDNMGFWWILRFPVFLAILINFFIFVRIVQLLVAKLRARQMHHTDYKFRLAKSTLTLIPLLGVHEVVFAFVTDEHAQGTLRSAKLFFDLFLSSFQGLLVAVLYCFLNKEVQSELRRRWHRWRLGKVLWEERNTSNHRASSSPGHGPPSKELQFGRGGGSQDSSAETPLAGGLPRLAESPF
# Outline: as §1
# [1] = target: T3, human GLP-1 receptor (hGLP-1R) (Homo sapiens, UniProt P43220); experiment: [125I]-GLP-1 binding, SPA with membranes of HEK293 cells expressing hGLP-1R
# T3 construct: expressed in transfected cells; crude membranes
# T3 sequence (P43220 24-463): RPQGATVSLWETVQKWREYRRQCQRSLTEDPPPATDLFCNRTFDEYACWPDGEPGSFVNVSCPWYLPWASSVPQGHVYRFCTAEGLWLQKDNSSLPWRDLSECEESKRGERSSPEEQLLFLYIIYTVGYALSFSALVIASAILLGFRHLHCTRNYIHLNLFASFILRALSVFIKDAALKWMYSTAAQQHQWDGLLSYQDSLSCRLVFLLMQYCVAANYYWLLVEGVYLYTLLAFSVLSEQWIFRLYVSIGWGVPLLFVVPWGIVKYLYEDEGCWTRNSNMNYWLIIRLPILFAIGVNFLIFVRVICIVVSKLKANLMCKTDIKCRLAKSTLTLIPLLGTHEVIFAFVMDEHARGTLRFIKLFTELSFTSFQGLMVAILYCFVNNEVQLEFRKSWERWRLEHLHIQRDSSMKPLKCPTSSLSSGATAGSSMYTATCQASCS
# hGLP-1R = hGLP-1R (Homo sapiens, UniProt P43220); experiment: Functional cAMP formation (HTRF) in HEK-293 clonal cells expressing hGLP-1R, 0.1% bovine casein, without or with 1.0% human serum albumin; assay type: cell-based; set-up: expressed in transfected cells; details: for EC50: geometric mean; for Emax: percent of maximal response to GLP-1(7-36)NH2
# Chain of hGLP-1R (P43220 24-463): as above
# Outline: as §1
# [2] = 0.1% bovine casein and 1.0% human serum albumin, 37° C., read-out: hGIPR EC50, nM (SEM, n)
# [3] = HEK293, 0.1% bovine casein and 1.0% human serum albumin, 37° C., percent of maximal response to GIP(1-42)NH2, read-out: hGIPR Emax, % ± SEM
# [4] = 0.1% bovine casein and 1.0% human serum albumin, 37° C., geometric mean, read-out: hGCGR EC50, nM (SEM, n)
# [5] = cAMP, incubated at 37° C., 0.1% bovine casein (no human serum albumin), geometric mean, read-out: hGCGR EC50, nM (SEM, n)
# [6] = human GLP-1R, geometric mean (SEM, n), read-out: Binding Affinity Ki, nM (SEM, n) hGLP-1R
# [7] = 0.1% bovine casein and 1.0% human serum albumin, 37° C., read-out: hGLP-1R EC50, nM (SEM, n)
compound,measurement,setting,value
CCCCCCCCCCCCCCCC(=O)N[C@@H](CCC(=O)NCCOCCOCC(=O)NCCOCCOCC(=O)NCCCC[C@H](NC(=O)[C@H](CCCN)NC(=O)[C@H](CC(=O)O)NC(=O)[C@H](CC(C)C)NC(=O)[C@](C)(CC(C)C)NC(=O)[C@@H](NC(=O)[C@H](CO)NC(=O)[C@H](Cc1ccncc1)NC(=O)[C@H](CC(=O)O)NC(=O)[C@H](CO)NC(=O)[C@@H](NC(=O)[C@](C)(Cc1ccccc1F)NC(=O)[C@@H](NC(=O)CNC(=O)[C@H](CCC(=O)O)NC(=O)C(C)(C)NC(=O)[C@@H](N)Cc1ccc(O)cc1)[C@@H](C)O)[C@@H](C)O)[C@@H](C)CC)C(=O)N[C@@H](C)C(=O)N[C@@H](CCC(N)=O)C(=O)NC(C)(C)C(=O)N[C@@H](CCC(=O)O)C(=O)N[C@@H](Cc1ccccc1)C(=O)N[C@H](C(=O)N[C@@H](CCCCNC(=O)COCCOCCNC(=O)COCCOCCNC(=O)CC[C@H](NC(=O)CCCCCCCCCCCCCCC)C(=O)O)C(=O)N[C@@](C)(Cc1ccc(O)cc1)C(=O)N[C@@H](CC(C)C)C(=O)N[C@H](C(=O)N[C@@H](CCC(=O)O)C(=O)NCC(=O)NCC(=O)N1CCC[C@H]1C(=O)N[C@@H](CO)C(=O)N[C@@H](CO)C(=O)NCC(=O)N[C@@H](C)C(=O)N1CCC[C@H]1C(=O)N1CCC[C@H]1C(=O)N1CCC[C@H]1C(=O)N[C@@H](CO)C(N)=O)[C@@H](C)CC)[C@@H](C)CC)C(=O)O [Example 22],Emax,"hGIPR; HEK293, read-out: hGIPR Emax, % ± SEM, 0.1% bovine casein and 1.0% human serum albumin, 37° C., percent of maximal response to GIP(1-42)NH2",93.4 ± 0.775%
same,EC50,"hGIPR; hGIPR EC50, nM (SEM, n), 0.1% bovine casein and 1.0% human serum albumin, 37° C.",0.533 nM
same,EC50,"hGCGR; hGCGR EC50, nM (SEM, n), 0.1% bovine casein and 1.0% human serum albumin, 37° C., geometric mean",> 9950 nM
same,EC50,"hGCGR; hGCGR EC50, nM (SEM, n), cAMP, incubated at 37° C., 0.1% bovine casein (no human serum albumin), geometric mean",> 9950 nM
same,Ki,[1],0.301 nM
same,EC50,"hGLP-1R; hGLP-1R EC50, nM (SEM, n), 0.1% bovine casein and 1.0% human serum albumin, 37° C.",1.5 nM
CCCCCCCCCCCC(=O)N[C@@H](CCC(=O)NCCOCCOCC(=O)NCCCC[C@H](NC(=O)CNC(=O)CNC(=O)[C@H](CCC(=O)O)NC(=O)[C@@H](NC(=O)[C@H](CC(C)C)NC(=O)[C@](C)(Cc1ccc(O)cc1)NC(=O)[C@@H](CCC(=O)O)NC(=O)[C@@H](NC(=O)[C@H](Cc1ccccc1)NC(=O)[C@H](CCC(=O)O)NC(=O)C(C)(C)NC(=O)[C@H](CCC(N)=O)NC(=O)[C@H](C)NC(=O)[C@H](CCCCNC(=O)COCCOCCNC(=O)CC[C@H](NC(=O)CCCCCCCCCCC)C(=O)O)NC(=O)[C@H](CCCN)NC(=O)[C@H](CC(=O)O)NC(=O)[C@H](CC(C)C)NC(=O)[C@](C)(CC(C)C)NC(=O)[C@@H](NC(=O)[C@H](CO)NC(=O)[C@H](Cc1ccncc1)NC(=O)[C@H](CC(=O)O)NC(=O)[C@H](CO)NC(=O)[C@@H](NC(=O)[C@](C)(Cc1ccccc1F)NC(=O)[C@@H](NC(=O)CNC(=O)[C@H](CCC(=O)O)NC(=O)C(C)(C)NC(=O)[C@@H](N)Cc1ccc(O)cc1)[C@@H](C)O)[C@@H](C)O)[C@@H](C)CC)[C@@H](C)CC)[C@@H](C)CC)C(=O)N[C@@H](CO)C(=O)N[C@@H](CO)C(=O)NCC(=O)N[C@@H](C)C(=O)N1CCC[C@H]1C(=O)N1CCC[C@H]1C(=O)N1CCC[C@H]1C(=O)N[C@@H](CO)C(N)=O)C(=O)O [Example 14],EC50,hGIPR; [2],0.769 nM
same,Emax,hGIPR; [3],89.5 ± 1.02%
same,Emax,"hGIPR; HEK293, percent of maximal response to GIP(1-42)NH2, 37° C., 0.1% bovine casein, arithmetic mean, read-out: hGIPR Emax, % ± SEM",95 ± 2.32%
same,EC50,hGCGR; [4],> 9950 nM
same,EC50,hGCGR; [5],> 9950 nM
same,Ki,[1]; [6],0.286 nM
same,EC50,hGLP-1R; [7],9.19 nM
CC[C@H](C)[C@H](NC(=O)[C@H](CC(C)C)NC(=O)[C@](C)(Cc1ccc(O)cc1)NC(=O)[C@H](CCCCNC(=O)COCCOCCNC(=O)COCCOCCNC(=O)[C@H]1CC[C@H](CNC(=O)CC[C@H](NC(=O)CCCCCCCCCOc2ccc(C(=O)O)cc2)C(=O)O)CC1)NC(=O)[C@@H](NC(=O)[C@H](Cc1ccccc1)NC(=O)[C@H](CCCN)NC(=O)C(C)(C)NC(=O)[C@H](CCC(N)=O)NC(=O)[C@H](C)NC(=O)[C@H](CCC(N)=O)NC(=O)[C@H](CCCN)NC(=O)[C@H](CC(=O)O)NC(=O)[C@H](CC(C)C)NC(=O)[C@](C)(CC(C)C)NC(=O)[C@@H](NC(=O)C(C)(C)NC(=O)[C@H](Cc1ccncc1)NC(=O)[C@H](CC(=O)O)NC(=O)[C@H](CO)NC(=O)[C@@H](NC(=O)[C@](C)(Cc1ccccc1F)NC(=O)[C@@H](NC(=O)CNC(=O)[C@H](CCC(=O)O)NC(=O)C(C)(C)NC(=O)[C@@H](N)Cc1ccc(O)cc1)[C@@H](C)O)[C@@H](C)O)[C@@H](C)CC)[C@@H](C)CC)C(=O)N[C@@H](CCCCNC(=O)COCCOCCNC(=O)COCCOCCNC(=O)[C@H]1CC[C@H](CNC(=O)CC[C@H](NC(=O)CCCCCCCCCOc2ccc(C(=O)O)cc2)C(=O)O)CC1)C(=O)NCC(=O)NCC(=O)N1CCC[C@H]1C(=O)N[C@@H](CO)C(=O)N[C@@H](CO)C(=O)NCC(=O)N[C@@H](C)C(=O)N1CCC[C@H]1C(=O)N1CCC[C@H]1C(=O)N1CCC[C@H]1C(=O)N[C@@H](CO)C(N)=O [Example 471],Emax,"hGIPR; HEK293, read-out: hGIPR Emax, % ± SEM, cAMP, 37° C., 0.1% bovine casein and 1.0% human serum albumin, percent of maximal response to GIP(1-42)NH2",90.1%
same,EC50,"hGIPR; hGIPR EC50, nM (SEM, n), cAMP, 37° C., 0.1% bovine casein (no human serum albumin)",0.0107 nM
same,EC50,"hGCGR; hGCGR EC50, nM (SEM, n), cAMP, 37° C., 0.1% bovine casein (no human serum albumin), geometric mean",> 9950 nM
same,EC50,"hGCGR; hGCGR EC50, nM (SEM, n), cAMP, 37° C., 0.1% bovine casein and 1.0% human serum albumin, geometric mean (SEM, n)",> 9950 nM
same,Ki,[1],0.197 nM
same,Emax,"hGLP-1R; HEK293, read-out: hGLP-1R Emax, % ± SEM, cAMP, 37° C., 0.1% bovine casein and 1.0% human serum albumin",110%
same,Emax,"hGLP-1R; HEK293, read-out: hGLP-1R Emax, % ± SEM, cAMP, 37° C., 0.1% bovine casein, arithmetic mean",112%
same,EC50,"hGLP-1R; hGLP-1R EC50, nM (SEM, n), cAMP, 37° C., 0.1% bovine casein (no human serum albumin)",0.143 nM
CCCCCCCCCCCC(=O)N[C@@H](CCC(=O)NCCOCCOCC(=O)NCCOCCOCC(=O)NCCCC[C@H](NC(=O)[C@H](CCCN)NC(=O)[C@H](CC(=O)O)NC(=O)[C@H](CC(C)C)NC(=O)[C@](C)(CC(C)C)NC(=O)[C@@H](NC(=O)[C@H](CO)NC(=O)[C@H](Cc1ccncc1)NC(=O)[C@H](CC(=O)O)NC(=O)[C@H](CO)NC(=O)[C@@H](NC(=O)[C@](C)(Cc1ccccc1F)NC(=O)[C@@H](NC(=O)CNC(=O)[C@H](CCC(=O)O)NC(=O)C(C)(C)NC(=O)[C@@H](N)Cc1ccc(O)cc1)[C@@H](C)O)[C@@H](C)O)[C@@H](C)CC)C(=O)N[C@@H](C)C(=O)N[C@@H](CCC(N)=O)C(=O)NC(C)(C)C(=O)N[C@@H](CCCCNC(=O)COCCOCCNC(=O)COCCOCCNC(=O)CC[C@H](NC(=O)CCCCCCCCCCC)C(=O)O)C(=O)N[C@@H](Cc1ccccc1)C(=O)N[C@H](C(=O)N[C@H](CCC(=O)O)C(=O)N[C@@](C)(Cc1ccc(O)cc1)C(=O)N[C@@H](CC(C)C)C(=O)N[C@H](C(=O)N[C@@H](CCC(=O)O)C(=O)NCC(=O)NCC(=O)N1CCC[C@H]1C(=O)N[C@@H](CO)C(=O)N[C@@H](CO)C(=O)NCC(=O)N[C@@H](C)C(=O)N1CCC[C@H]1C(=O)N1CCC[C@H]1C(=O)N1CCC[C@H]1C(=O)N[C@@H](CO)C(N)=O)[C@@H](C)CC)[C@@H](C)CC)C(=O)O [Example 137],EC50,hGIPR; [2],0.728 nM
same,Emax,hGIPR; [3],90.3 ± 0.387%
same,EC50,"hGIPR; cAMP, incubated at 37° C., 0.1% bovine casein (no human serum albumin), read-out: hGIPR EC50, nM (SEM, n)",0.0116 nM
same,EC50,hGCGR; [4],> 9950 nM
same,EC50,hGCGR; [5],> 9950 nM
same,Ki,[1]; [6],0.25 nM
same,EC50,hGLP-1R; [7],5.02 nM
same,EC50,"hGLP-1R; cAMP, incubated at 37° C., 0.1% bovine casein (no human serum albumin), read-out: hGLP-1R EC50, nM (SEM, n)",0.134 nM
